# Assay results from article PMC8566451, “Lead optimization of novel quinolone chalcone compounds by a structure–activity relationship (SAR) study to increase efficacy and metabolic stability” (Scientific Reports, 2021).
# How the values were obtained:
# [1] = tested on: cancer cell lines (breast cancer, melanoma, cervical cancer); experiment: SRB assay, average GI50 over cancer cell lines; format: cell-based; conditions: average over the cell lines of Table 1 or Supplemental Table S1; read-out: average GI50
# Protocol: (§1) The SRB assay was used to assess drug-induced cytotoxicity and cell proliferation as previously described[2],[33],[34] with a few modifications. Briefly, cells were plated 10,000 to 25,000 cells/cm^2 in 96-well plates (100 µl medium) and allowed to adhere overnight. The cell counts were different for each cell line to ensure optimal cell growth for the duration of the assay. Eight different concentrations of compound solutions using 2–4 times serial dilutions (100 µl). Cells were then incubated for an additional 48 h and then fixed with 100 µl ice-cold 10% (w/v) trichloroacetic acid (TCA) (without removing the cell medium, final concentration, 3.3% of TCA) and stained with 0.4% SRB (w/v) in 1% acetic acid (v/v). The relative growth rate (%) was calculated for each of the compound concentrations according to the following formula: 100 * (T − T0)/(C − T0), in which T is the optical density (OD) after exposure to a certain concentration of the compound after 48 h, T0 is the OD at the start of drug exposure (time zero) and C is the control growth. The GI50 for each compound was obtained from a non-linear sigmoidal dose–response (variable slope) curve fitted by GraphPad Prism v.4.03 software.
# MDA-MB231-TaxR = experiment: Sulforhodamine B (SRB) assay; format: cell-based; conditions: Homo sapiens, MDA-MB231-TaxR paclitaxel-resistant breast cancer cells, 48 h
# Excerpt: We had initially determined that quinolone chalcones were promising anti-proliferative through a first round screening and identified CTR-17 and CTR-20 as favorable structures for anticancer activity. […] We carried out a comparative SAR study to determine if we could further optimize the quinolone chalcone to maximize efficacy. The Sulforhodamine B (SRB) assay was used to measure the anti-proliferative/cell killing activities of CTRs, for which several different cell lines were use: the cervical cancer HeLa, the breast cancer cell lines MDA-MB231, MDA-MB468, MDA-MB231TaxR (an induced paclitaxel-resistant sub-cell line of the MDA-MB231[9]) and MCF7. In addition, a subset was tested against the melanoma cell lines MZ-MEL-3.1, Mel-SOE, UKRV-Mel-38, UKRV-Mel-17 and MDA-MB-435 (Table 1, Supplemental Table S1).
# as §1
# UKRV-Mel-38 = experiment: Sulforhodamine B (SRB) assay; format: cell-based; conditions: UKRV-Mel-38 melanoma cells, 48 h
# Protocol: (§2) The human MDA-MB-231, MCF7, MDA-MB-468, RPMI-8226 and HeLa cell lines were purchased from ATCC and maintained in Dulbecco's Modified Eagle Medium (DMEM)—high glucose supplemented with 10% fetal bovine serum (FBS) and antibiotics/antimycotics. Cell line authentication was carried out by Genetica DNA Laboratories (Burlington, NC) using a short tandem repeat (STR) profiling method (March 2015; July 2015; September 2016). Melanoma cells E-055 (MZ-Mel-3), E-097 (Mel-SOE), E-112 (UKRV-Mel-38), E-157 (UKRV-Mel-17) were obtained from the European Searchable Tumour Line Database (ESTDAB) cell bank (a kind gift of Dr. Graham Pawelec, Tubingen University, Germany). MDA-MB-435 was purchased from the Division of Cancer Treatment and Diagnosis Tumor Repository. All melanoma cells were cultured in Roswell Park Memorial Institute (RPMI) medium supplemented with 10% FBS and P/S/antimycotics. Primary human epidermal melanocytes from normal adult abdominal skin were purchased from ATCC (cat # PCS-200–013) and Cell Applications (cat#104-05a). The melanocytes were cultured in the media supplied by the companies.
# as §1
# MDA-MB468 = experiment: Sulforhodamine B (SRB) assay; format: cell-based; conditions: Homo sapiens, MDA-MB-468, MDA-MB468 breast cancer cells, 48 h
# Protocol: as §2, §1
# MDA-MB435 = experiment: Sulforhodamine B (SRB) assay; format: cell-based; conditions: Homo sapiens, MDA-MB-435, MDA-MB435 cells, 48 h
# Protocol: as §2, §1
# MCF7 = experiment: Sulforhodamine B (SRB) assay; format: cell-based; conditions: Homo sapiens; for GI50: MCF7 breast cancer cells, 48 h, SRB; for IC50: MCF7, Supplementary Table S1, SRB
# Protocol: as §2, §1
# Mel-SOE = experiment: Sulforhodamine B (SRB) assay; format: cell-based; conditions: Mel-SOE melanoma cells, 48 h
# Protocol: as §2, §1
# UKRV-Mel-17 = experiment: Sulforhodamine B (SRB) assay; format: cell-based; conditions: UKRV-Mel-17 melanoma cells, 48 h
# Protocol: as §2, §1
# MDA-MB231 = experiment: Sulforhodamine B (SRB) assay; format: cell-based; conditions: Homo sapiens, MDA-MB-231; for GI50: MDA-MB231 breast cancer cells, 48 h, SRB; for IC50: Supplementary Table S1, SRB
# Protocol: as §2, §1
# HeLa = experiment: Sulforhodamine B (SRB) assay; format: cell-based; conditions: Homo sapiens; for GI50: HeLa cervical cancer cells, 48 h, SRB; for IC50: HeLa, Supplementary Table S1, SRB
# Protocol: as §2, §1
# MZ-Mel-3 = experiment: Sulforhodamine B (SRB) assay; format: cell-based; conditions: MZ-Mel-3 melanoma cells, 48 h
# Protocol: as §2, §1
# RPMI-8226 = experiment: Sulforhodamine B (SRB) assay; format: cell-based; conditions: Homo sapiens, Supplementary Table S1, SRB
# Protocol: as §2, §1
# porcine tubulin = biological target: T1, porcine tubulin (Sus scrofa, UniProt P02550+P02554); experiment: In vitro tubulin polymerization assay; format: biochemical; conditions: 3 µM compound, 20 µM porcine tubulin, 37 °C, 60 min
# T1 construct: purchased Cytoskeleton Inc., Denver, CO BK011P
# T1 sequence (P02554 whole entry): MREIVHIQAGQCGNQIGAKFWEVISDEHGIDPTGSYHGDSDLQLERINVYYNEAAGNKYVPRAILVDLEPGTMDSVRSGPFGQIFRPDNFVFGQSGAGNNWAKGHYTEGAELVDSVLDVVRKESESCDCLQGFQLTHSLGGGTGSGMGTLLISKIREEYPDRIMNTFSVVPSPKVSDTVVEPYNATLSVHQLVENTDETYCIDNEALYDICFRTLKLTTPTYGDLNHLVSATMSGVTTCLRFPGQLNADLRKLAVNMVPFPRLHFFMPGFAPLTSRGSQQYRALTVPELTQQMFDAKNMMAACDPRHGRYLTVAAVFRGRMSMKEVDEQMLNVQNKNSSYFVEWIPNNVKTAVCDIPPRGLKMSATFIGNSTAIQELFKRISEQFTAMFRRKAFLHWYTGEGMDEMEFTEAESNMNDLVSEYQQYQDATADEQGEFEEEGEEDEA
# T1 sequence (P02550 whole entry): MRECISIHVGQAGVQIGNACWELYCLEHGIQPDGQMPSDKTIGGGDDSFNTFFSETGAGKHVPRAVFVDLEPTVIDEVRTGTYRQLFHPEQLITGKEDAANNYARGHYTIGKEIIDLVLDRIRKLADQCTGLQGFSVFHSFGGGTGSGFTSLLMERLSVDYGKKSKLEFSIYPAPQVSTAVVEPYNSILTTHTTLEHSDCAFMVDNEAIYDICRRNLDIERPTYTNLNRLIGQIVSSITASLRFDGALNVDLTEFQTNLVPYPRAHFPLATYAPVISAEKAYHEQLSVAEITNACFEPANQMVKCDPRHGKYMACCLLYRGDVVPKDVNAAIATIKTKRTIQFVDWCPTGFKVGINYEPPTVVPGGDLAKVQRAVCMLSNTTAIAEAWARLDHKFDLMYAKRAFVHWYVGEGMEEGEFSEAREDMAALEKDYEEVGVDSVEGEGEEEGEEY
# Protocol: Spontaneous polymerization of 20 µM porcine tubulin was initiated with the addition of 1 mmol/L GTP at 37 °C and monitored every minute for 60 min in the presence of the indicated concentration of CTR-21, CTR-32, nocodazole, paclitaxel, or a DMSO vehicle control. To make the graph simpler, only 3 µM concentration is shown. […] A modified Dixon plot was used to determine the inhibitory concentration of CTR-21 and CTR-32 (Ki).
# Microtubule assembly was assessed using a Tubulin Polymerization assay kit (BK011P; Cytoskeleton Inc., Denver, CO). […] Polymerization was started by incubating at 37 °C and followed by absorbance readings every 1 min at 340 nm for 1 h using a Synergy H4 plate reader.
SMILES,GI50 [1] [nM],GI50 (MDA-MB231-TaxR) [nM],GI50 (MDA-MB468) [nM],GI50 (MDA-MB435) [nM],GI50 (MCF7) [nM],GI50 (MDA-MB231) [nM],GI50 (HeLa) [nM],IC50 (RPMI-8226) [nM],IC50 (MCF7) [nM],IC50 (MDA-MB231) [nM],IC50 (HeLa) [nM],GI50 (UKRV-Mel-38) [nM],GI50 (Mel-SOE) [nM],GI50 (UKRV-Mel-17) [nM],GI50 (MZ-Mel-3) [nM],effect on tubulin polymerization (porcine tubulin)
"COc1ccccc1C(=O)/C=C/c1cc2ccccc2[nH]c1=O [CTR-17, (E)-3-(3-(2-methoxyphenyl)-3-oxoprop-1-enyl)quinolin-2(1H)-one]",464,1300 ± 83,320 ± 26,290 ± 66,485 ± 97,657 ± 72,280 ± 78,–,–,–,–,626 ± 154,786 ± 52,504 ± 33,227 ± 30,–
"COc1ccc2[nH]c(=O)c(/C=C/C(=O)c3ccccc3OC)cc2c1 [CTR-20, (E)-6-Methoxy-3-(3-(2-methoxyphenyl)-3-oxoprop-1-enyl) quinolin-2(1H)-one]",232,966 ± 163,408 ± 12,90 ± 10,194 ± 21,216 ± 21,124 ± 36,–,–,–,–,338 ± 33,338 ± 78,283 ± 57,98 ± 21,–
"COc1cc2cc(/C=C/C(=O)c3ccccc3OC)c(=O)[nH]c2cc1OC [CTR-24, (E)-6,7-dimethoxy-3-(3-(2-methoxyphenyl)-3-oxoprop-1-enyl)quinolin-2(1H)-one]",1500,–,–,–,–,–,–,1040 ± 130,1540 ± 360,2020 ± 10,1340 ± 200,–,–,–,–,–
"COc1cccc(OC)c1C(=O)/C=C/c1cc2ccccc2[nH]c1=O [CTR-25, (E)-3-(3-(2,6-dimethoxyphenyl)-3-oxoprop-1-enyl)quinolin-2(1H)-one]",1600,–,–,–,–,–,–,770 ± 210,1690 ± 70,2600 ± 180,1320 ± 20,–,–,–,–,–
"COc1ccc(OC)c(C(=O)/C=C/c2cc3ccccc3[nH]c2=O)c1 [CTR-26, (E)-3-(3-(2,5-dimethoxyphenyl)-3-oxoprop-1-enyl)quinolin-2(1H)-one]",443,–,–,–,–,–,–,200 ± 30,320 ± 10,960 ± 150,290 ± 20,–,–,–,–,–
"COc1ccc(C(=O)/C=C/c2cc3ccccc3[nH]c2=O)c(OC)c1 [CTR-27, (E)-3-(3-(2,4-dimethoxyphenyl)-3-oxoprop-1-enyl)quinolin-2(1H)-one]",–,–,–,–,–,–,–,770 ± 100,2200 ± 350,2690 ± 240,1800 ± 270,–,–,–,–,–
"COc1ccc2[nH]c(=O)c(/C=C/C(=O)c3ccc(OC(F)(F)F)cc3OC)cc2c1 [CTR-36, (E)-6-methoxy-3-(3-(2-methoxy-4-(trifluoromethoxy)phenyl)-3-oxoprop-1-enyl)quinolin-(1H)-one]",805,–,–,–,–,–,–,150 ± 20,1230 ± 80,730 ± 60,1110 ± 130,–,–,–,–,–
"COc1ccc2[nH]c(=O)c(/C=C/C(=O)c3cc(F)ccc3OC)cc2c1 [CTR-37, (E)-3-(3-(5-fluoro-2-methoxyphenyl)-3-oxoprop-1-enyl)-6-methoxyquinolin-2(1H)-one]",–,–,–,–,–,–,–,100 ± 30,320 ± 40,390 ± 90,140 ± 30,–,–,–,–,–
"COc1ccc2[nH]c(=O)c(/C=C/C(=O)c3ccc(F)cc3OC)cc2c1 [CTR-38, (E)-3-(3-(4-fluoro-2-methoxyphenyl)-3-oxoprop-1-enyl)-6-methoxyquinolin-2(1H)-one]",98,–,–,–,–,–,–,40 ± 10,140 ± 20,150 ± 10,60 ± 10,–,–,–,–,–
"COC(=O)Nc1nc2ccc(C(=O)c3cccs3)cc2[nH]1 [Noco, Nocodazole, reference compound]",–,47 ± 11,48 ± 7,18 ± 2,33 ± 7,35 ± 4,25 ± 1,–,–,–,–,34 ± 3,51 ± 11,39 ± 1,23 ± 2,reduced steady-state

# Continued, in another order:
GI50 [1] [nM],GI50 (MDA-MB231-TaxR) [nM],GI50 (MDA-MB468) [nM],GI50 (MDA-MB435) [nM],GI50 (MCF7) [nM],GI50 (MDA-MB231) [nM],GI50 (HeLa) [nM],IC50 (RPMI-8226) [nM],IC50 (MCF7) [nM],IC50 (MDA-MB231) [nM],IC50 (HeLa) [nM],SMILES,GI50 (UKRV-Mel-38) [nM],GI50 (Mel-SOE) [nM],GI50 (UKRV-Mel-17) [nM],GI50 (MZ-Mel-3) [nM],effect on tubulin polymerization (porcine tubulin)
499,1210 ± 179,304 ± 2,307 ± 7,510 ± 38,530 ± 119,443 ± 112,–,–,–,–,"COc1ccccc1C(=O)/C=C/c1cc2cc(C)ccc2[nH]c1=O [CTR-18, (E)-3-(3-(2-methoxyphenyl)-3-oxoprop-1-enyl)-6-methylquinolin-2(1H)-one]",746 ± 177,817 ± 34,596 ± 162,239 ± 13,–
118,–,–,–,–,–,–,70 ± 10,100 ± 10,210 ± 20,90 ± 20,"COc1ccc(F)cc1C(=O)/C=C/c1cc2ccccc2[nH]c1=O [CTR-29, (E)-3-(3-(5-fluoro-2-methoxyphenyl)-3-oxoprop-1-enyl)quinolin-2(1H)-one]",–,–,–,–,–
–,–,–,–,–,–,–,200 ± 30,1470 ± 150,1420 ± 80,1500 ± 130,"COc1cc(F)ccc1C(=O)/C=C/c1cc2ccccc2[nH]c1=O [CTR-30, (E)-3-(3-(4-fluoro-2-methoxyphenyl)-3-oxoprop-1-enyl)quinolin-2(1H)-one]",–,–,–,–,–
648,–,–,–,–,–,–,260 ± 20,850 ± 60,840 ± 80,640 ± 30,"COc1ccc(OC)c(C(=O)/C=C/c2cc3cc(OC)ccc3[nH]c2=O)c1 [CTR-34, (E)-3-(3-(2,5-dimethoxyphenyl)-3-oxoprop-1-enyl)-6-methoxyquinolin-2(1H)-one]",–,–,–,–,–
2000,–,–,–,–,–,–,1320 ± 100,2120 ± 360,2350 ± 260,2070 ± 250,"COc1ccc(C(=O)/C=C/c2cc3cc(OC)ccc3[nH]c2=O)c(OC)c1 [CTR-35, (E)-3-(3-(2,4-dimethoxyphenyl)-3-oxoprop-1-enyl)-6-methoxyquinolin-2(1H)-one]",–,–,–,–,–
36,54 ± 13,77 ± 13,23,41 ± 5,30 ± 4,19 ± 1,50 ± 20,90 ± 10,130 ± 20,40,"CCOc1ccccc1C(=O)/C=C/c1cc2cc(OC)ccc2[nH]c1=O [CTR-40, (E)-3-(3-(2-ethoxyphenyl)-3-oxoprop-1-enyl)-6-methoxyquinolin-2(1H)-one]",42 ± 11,53 ± 4,28 ± 5,11,–
